From patent publication US20240383886A1, “Protein Tyrosine Phosphatase Degraders and Methods of Use Thereof” (CALICO LIFE SCIENCES LLC, priority 2019, published 2024)

What was measured:
[1] = target: T1, PTPN2 (Homo sapiens, UniProt P17706); assay: HiBiT-Degradation 293T.109 PTPN2 (Nano-Glo HiBiT Lytic Assay); format: cell-based; details: 293T.109 (HiBiT-PTPN2) cells, 24.0 hours
T1 construct: expressed in transfected cells; host or cells: 293T (293T.109 HiBiT-PTPN2 line; parental 293T WT from ATCC)
T1 sequence (P17706 1-415): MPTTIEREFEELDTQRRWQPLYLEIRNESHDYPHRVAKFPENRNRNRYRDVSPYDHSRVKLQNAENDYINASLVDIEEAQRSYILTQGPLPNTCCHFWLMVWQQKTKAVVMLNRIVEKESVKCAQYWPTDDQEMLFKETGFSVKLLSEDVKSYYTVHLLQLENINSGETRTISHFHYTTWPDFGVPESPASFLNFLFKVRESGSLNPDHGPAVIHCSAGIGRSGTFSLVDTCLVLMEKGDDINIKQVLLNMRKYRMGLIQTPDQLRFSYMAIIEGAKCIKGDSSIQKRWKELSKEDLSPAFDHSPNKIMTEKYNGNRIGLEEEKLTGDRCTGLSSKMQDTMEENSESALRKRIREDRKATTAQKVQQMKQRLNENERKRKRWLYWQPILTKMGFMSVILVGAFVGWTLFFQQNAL
Text: Dulbecco's modified Eagle medium (DMEM) without phenol red and fetal bovine serum (FBS) were purchased from Gibco (Grand Island, NY, USA). Nano-Glo® HiBIT Lytic Assay System was purchased from Promega (Madison, WI, USA). 293T.109 (HiBiT-PTPN2) cell line was generated by ectopically expressing PTPN2 with N-terminal HiBiT fusion tag in 293T WT cell line purchased from ATCC (Manassas, VA, USA). Cell culture flasks and 384-well microplates were acquired from VWR (Radnor, PA, USA).
PTPN2 degradation was determined based on quantification of luminescent signal using Nano-Glo® HiBIT Lytic Assay kit. Test compounds were added to the 384-well plate from a top concentration of 10 μM with 11 points, half log titration in duplicates. 293T.109 cells were added into 384-well plates at a cell density of 5000 cells per well. The plates were kept at 37° C. with 5% CO2 for 24 hours. The cells treated in the absence of the test compound were the negative control and the cells without Nano-Glo® HiBiT Lytic reagent were the positive control. After 24-hour incubation, Nano-Glo® HiBIT Lytic Assay reagents were added to the cells. Luminescence was acquired on EnVision™ Multilabel Reader (PerkinElmer, Santa Clara, CA, USA).

[2] = test system: PTPN2; assay: HiBiT-Degradation B16F10.4 PTPN2; format: cell-based; details: B16F10.4 cells, 24.0 hours

| DC50 [1] | DC50 [2] | SMILES |
| --- | --- | --- |
| 0.05 to 0.2 µM | 0.05 to 0.2 µM | Cn1c(=O)n(C2CCC(=O)NC2=O)c2ccc([C@H]3CC[C@@H](CNC(=O)c4ccc5c(F)c(N6CC(=O)NS6(=O)=O)c(O)cc5c4)CC3)cc21 (single isomer, unassigned) [Example 75] |
| 0.01 to 0.05 µM | 0.05 to 0.2 µM | Cn1c(=O)n(C2CCC(=O)NC2=O)c2ccc([C@H]3CC[C@H](CNC(=O)c4ccc5c(F)c(N6CC(=O)NS6(=O)=O)c(O)cc5c4)CC3)cc21 (single isomer, unassigned) [Example 76] |
| 0.01 to 0.05 µM | 0.01 to 0.05 µM | Cn1c(=O)n(C2CCC(=O)NC2=O)c2ccc([C@H]3CC[C@@H](CC(=O)Nc4ccc5c(F)c(N6CC(=O)NS6(=O)=O)c(O)cc5c4)CC3)cc21 (single isomer, unassigned) [Example 81a, N-(6-(1,1-dioxido-4-oxo-1,2,5-thiadiazolidin-2-yl)-5-fluoro-7-hydroxynaphthalen-2-yl)-2-((1s,4s)-4-(1-(2,6-dioxopiperidin-3-yl)-3-methyl-2-oxo-2,3-dihydro-1H-benzo[d]imidazol-5-yl)cyclohexyl)acetamide] |
| 0.01 to 0.05 µM | 0.2 to 1 µM | Cn1c(=O)n(C2CCC(=O)NC2=O)c2ccc([C@H]3CC[C@H](CC(=O)Nc4ccc5c(F)c(N6CC(=O)NS6(=O)=O)c(O)cc5c4)CC3)cc21 (single isomer, unassigned) [Example 81b, N-(6-(1,1-dioxido-4-oxo-1,2,5-thiadiazolidin-2-yl)-5-fluoro-7-hydroxynaphthalen-2-yl)-2-((1r,4r)-4-(1-(2,6-dioxopiperidin-3-yl)-3-methyl-2-oxo-2,3-dihydro-1H-benzo[d]imidazol-5-yl)cyclohexyl)acetamide] |
| 0.01 to 0.05 µM | 0.2 to 1 µM | Cn1nc(C2CCC(=O)NC2=O)c2ccc([C@H]3CC[C@H](CC(=O)Nc4ccc5c(F)c(N6CC(=O)NS6(=O)=O)c(O)cc5c4)CC3)cc21 (single isomer, unassigned) [Example 179, N-(6-(1,1-dioxido-4-oxo-1,2,5-thiadiazolidin-2-yl)-5-fluoro-7-hydroxynaphthalen-2-yl)-2-((trans)-4-(3-(2,6-dioxopiperidin-3-yl)-1-methyl-1H-indazol-6-yl)cyclohexyl)acetamide] |
| 0.05 to 0.2 µM | 0.2 to 1 µM | Cn1c(=O)n(C2CCC(=O)NC2=O)c2cccc(OC3CCN(CC(=O)NCCOc4ccc5cc(O)c(N6CC(=O)NS6(=O)=O)c(F)c5c4)CC3)c21 (stereo not shown) [Example 9, 2-[4-[1-(2,6-dioxo-3-piperidyl)-3-methyl-2-oxo-benzimidazol-4-yl]oxy-1-piperidyl]-N-[2-[[8-fluoro-6-hydroxy-7-(1,1,4-trioxo-1,2,5-thiadiazolidin-2-yl)-2-naphthyl]oxy]ethyl]acetamide] |
| ≥ 1 µM |  | O=C(CCCCCn1cc(CNc2cccc3c2C(=O)N(C2CCC(=O)NC2=O)C3=O)nn1)NCCOc1ccc2cc(O)c(N3CC(=O)NS3(=O)=O)c(Cl)c2c1 (stereo not shown) [Example 49] |
| ≥ 1 µM |  | O=C(CCOCCn1cc(CNc2cccc3c2C(=O)N(C2CCC(=O)NC2=O)C3=O)nn1)NCCOc1ccc2cc(O)c(N3CC(=O)NS3(=O)=O)cc2c1 (stereo not shown) [Example 50] |
| ≥ 1 µM |  | O=C(CCCCCn1cc(CNc2cccc3c2C(=O)N(C2CCC(=O)NC2=O)C3=O)nn1)NCCOc1ccc2cc(O)c(N3CC(=O)NS3(=O)=O)cc2c1 (stereo not shown) [Example 51] |

More lines, now with the values behind:

| SMILES | DC50 [1] | DC50 [2] |
| --- | --- | --- |
| O=C1CCC(N2C(=O)c3cccc(NCC(=O)N4CCC(C(=O)NCCOc5ccc6cc(O)c(N7CC(=O)NS7(=O)=O)c(F)c6c5)CC4)c3C2=O)C(=O)N1 (stereo not shown) [Example 1, N-(2-((7-(1,1-dioxido-4-oxo-1,2,5-thiadiazolidin-2-yl)-8-fluoro-6-hydroxynaphthalen-2-yl)oxy)ethyl)-1-((2-(2,6-dioxopiperidin-3-yl)-1,3-dioxoisoindolin-4-yl)glycyl)piperidine-4-carboxamide] | 0.2 to 1 µM | ≥ 1 µM |
| O=C1CCC(N2Cc3c(NCC(=O)N4CCC(C(=O)NCCOc5ccc6cc(O)c(N7CC(=O)NS7(=O)=O)c(F)c6c5)CC4)cccc3C2=O)C(=O)N1 (stereo not shown) [Example 2, N-(2-((7-(1,1-dioxido-4-oxo-1,2,5-thiadiazolidin-2-yl)-8-fluoro-6-hydroxynaphthalen-2-yl)oxy)ethyl)-1-((2-(2,6-dioxopiperidin-3-yl)-1-oxoisoindolin-4-yl)glycyl)piperidine-4-carboxamide] | 0.2 to 1 µM | 0.2 to 1 µM |
| O=C1CCC(N2Cc3c(OCC(=O)N4CCC(C(=O)NCCOc5ccc6cc(O)c(N7CC(=O)NS7(=O)=O)c(F)c6c5)CC4)cccc3C2=O)C(=O)N1 (stereo not shown) [Example 3, 1-[2-[2-(2,6-dioxo-3-piperidyl)-1-oxo-isoindolin-4-yl]oxyacetyl]-N-[2-[[8-fluoro-6-hydroxy-7-(1,1,4-trioxo-1,2,5-thiadiazolidin-2-yl)-2-naphthyl]oxy]ethyl]piperidine-4-carboxamide] | 0.05 to 0.2 µM | 0.2 to 1 µM |
| Cn1c(=O)n(C2CCC(=O)NC2=O)c2ccc(C3CCN(CC(=O)NCCOc4ccc5cc(O)c(N6CC(=O)NS6(=O)=O)c(F)c5c4)CC3)cc21 (stereo not shown) [Example 4, N-(2-((7-(1,1-dioxido-4-oxo-1,2,5-thiadiazolidin-2-yl)-8-fluoro-6-hydroxynaphthalen-2-yl)oxy)ethyl)-2-(4-(1-(2,6-dioxopiperidin-3-yl)-3-methyl-2-oxo-2,3-dihydro-1H-benzo[d]imidazol-5-yl)piperidin-1-yl)acetamide] | 0.05 to 0.2 µM | ≥ 1 µM |
| O=C(CN1CCC(c2ccc3c(c2)oc(=O)n3C2CCC(=O)NC2=O)CC1)NCCOc1ccc2cc(O)c(N3CC(=O)NS3(=O)=O)c(F)c2c1 (stereo not shown) [Example 5, 2-[4-[3-(2,6-dioxo-3-piperidyl)-2-oxo-1,3-benzoxazol-6-yl]-1-piperidyl]-N-[2-[[8-fluoro-6-hydroxy-7-(1,1,4-trioxo-1,2,5-thiadiazolidin-2-yl)-2-naphthyl]oxy]ethyl]acetamide] | 0.05 to 0.2 µM | ≥ 1 µM |
| Cn1c(=O)n(C2CCC(=O)NC2=O)c2ccc(C3CCN(CCC(=O)NCCOc4ccc5cc(O)c(N6CC(=O)NS6(=O)=O)c(F)c5c4)CC3)cc21 (stereo not shown) [Example 6, N-(2-((7-(1,1-dioxido-4-oxo-1,2,5-thiadiazolidin-2-yl)-8-fluoro-6-hydroxynaphthalen-2-yl)oxy)ethyl)-3-(4-(1-(2,6-dioxopiperidin-3-yl)-3-methyl-2-oxo-2,3-dihydro-1H-benzo[d]imidazol-5-yl)piperidin-1-yl)propanamide] | 0.05 to 0.2 µM | ≥ 1 µM |
| O=C(CN1CCC(c2ccc3c4c(cccc24)C(=O)N3C2CCC(=O)NC2=O)CC1)NCCOc1ccc2cc(O)c(N3CC(=O)NS3(=O)=O)c(F)c2c1 (stereo not shown) [Example 7, N-(2-((7-(1,1-dioxido-4-oxo-1,2,5-thiadiazolidin-2-yl)-8-fluoro-6-hydroxynaphthalen-2-yl)oxy)ethyl)-2-(4-(1-(2,6-dioxopiperidin-3-yl)-2-oxo-1,2-dihydrobenzo[cd]indol-6-yl)piperidin-1-yl)acetamide] | 0.01 to 0.05 µM | 0.01 to 0.05 µM |
| Cn1nc(C2CCC(=O)NC2=O)c2ccc(C3CCN(CC(=O)NCCOc4ccc5cc(O)c(N6CC(=O)NS6(=O)=O)c(F)c5c4)CC3)cc21 (stereo not shown) [Example 8, 2-[4-[3-(2,6-dioxo-3-piperidyl)-1-methyl-indazol-6-yl]-1-piperidyl]-N-[2-[[8-fluoro-6-hydroxy-7-(1,1,4-trioxo-1,2,5-thiadiazolidin-2-yl)-2-naphthyl]oxy]ethyl]acetamide] | 0.01 to 0.05 µM | 0.05 to 0.2 µM |
